Measurements from PubChem BioAssay (NCI).
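The concentration for 50% growth inhibition is given as GI50. TGI denotes the concentration required for complete inhibition of growth.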

What was measured:
Assay in all cases: inhibition of tumour cell growth, NCI panel, 384-well format
[1] = test system: OVCAR-3 ovarian
[2] = test system: BT-549 breast
[3] = test system: IGROV1 ovarian
[4] = test system: U251 glioblastoma
[5] = test system: MDA-MB-468 breast
[6] = test system: RPMI-8226 leukemia
[7] = test system: LOX IMVI melanoma
[8] = test system: CAKI-1 renal
[9] = test system: SK-MEL-5 melanoma
[10] = test system: SK-MEL-28 melanoma
[11] = test system: A498 renal
[12] = test system: MDA-MB-435 melanoma
[13] = test system: UACC-62 melanoma

## CC(C)[C@](O)(c1ccc2cc(OC(F)F)c(OC(F)F)cc2c1)c1cn[nH]n1
[1]
  GI50: 13 µM
  TGI: 25.8 µM
[2]
  GI50: 14.6 µM
  TGI: 27.9 µM
[3]
  GI50: 17.6 µM
  TGI: 37 µM
[4]
  GI50: 16.7 µM
  TGI: 30.5 µM
[5]
  GI50: 10.3 µM
  TGI: 27.7 µM
[6]
  GI50: 9.27 µM
  TGI: 22.5 µM
[7]
  GI50: 17.3 µM
  TGI: 31.2 µM
[8]
  GI50: 15.7 µM
  TGI: 32.3 µM
[9]
  GI50: 13.1 µM
  TGI: 25.9 µM
[10]
  GI50: 17.2 µM
  TGI: 31.5 µM
[11]
  GI50: 17.5 µM
  TGI: 31.8 µM
[12]
  GI50: 16.9 µM
  TGI: 31.3 µM
[13]
  GI50: 16.4 µM
  TGI: 30 µM
